# From US5563125A, “5'-deoxy-5'-(substituted)alkylthioribose compounds and their pharmaceutical compositions” (priority 1992, dated 1996)
# Where two headings read alike, the source gives them in different places.
# Tests used:
# [1] = tested on: L1210 cells (MTA phosphorylase-deficient); assay: Growth inhibition of L1210 cells; assay type: cell-based, mouse; settings: L1210, 48 h
# Protocol: (§1) L1210, L5178Y and MOLT-4 cell lines were grown in RPMI 1640 and 10% Nu Serum (Collaborative Research Inc., Lexington, Mass.) and CCRF-CEM cells were grown in 10% Horse Serum (Gibco Laboratories, Grand Island, N.Y.) and maintained as previously described for suspension cultures by Pera et al. in Cancer Res. 46, 1148, 1986. Cell cultures (0.3×10^5 cells/ml) were treated with each compound at 0.1 to 1000 μM to determine the concentration that inhibited growth by 50% (IC50) at 48 hr for the L1210 and L5178Y cells and at 96 hr for the CCRF-CEM and MOLT-4 cells. The incubation times allowed approximately 4 cell doublings in each cell line. All compounds were freshly prepared prior to treatment by dissolving in DMSO and diluting in serum-free media. Cells were counted by electron particle counting (Model XF' Coulter Counter; Coulter Electronics, Hialeah, Fla.).
# (§2) For each compound, the concentrations required to inhibit cell growth by 50% (IC50 values) are shown in Table 7 for two murine leukemic cell lines, L1210 and L5178Y [MTA phosphorylase-deficient and MTA phosphorylase-containing, respectively] and two human leukemic cell lines, CCRF-CEM and MOLT-4 [MTA phosphorylase-deficient and MTA phosphorylase-containing, respectively]. ETA, MFETA, HETA and PTA had lower IC50 values in the L5178Y cells than in the L1210 cells. […] This differential is consistent with the possibility that, in L5178Y cells, MFETA is cleaved by MTA phosphorylase to the growth inhibitory metabolite, 5-monofluoroethylthioribose-1-phosphate (MFETR-1-P).
# [2] = tested on: T. b. brucei procyclic trypanosomes (Lab 110 EATRO strain); assay: In vitro antitrypanosomal activity, procyclic trypanosomes in T2 medium; assay type: cell-based, Trypanosoma brucei brucei; settings: 3-5 days
# Protocol: The antitrypanosomal effects of HETA and other nucleosides were examined in the Lab 110 EATRO strain of T. b. brucei in culture.
# Cells were cultured as described in Bacchi et al. Exp. Parasitol. 68, 392, 1989. Cells were then grown in the presence of the compounds for 3-5 days. Drugs were filtered, sterilized and added aseptically. Control cells achieved a maximum density of 1.5-3.5×10^7 /ml. Hemocytometer counts were made daily and the results were expressed as a percent of control growth. IC50 plots were obtained by graphing log (drug) vs. percent growth inhibition.
# Trypanocidal Activity of MTA and MTR Analogs
# against T. b. brucei procyclic trypanosomes in T2 medium.
# [3] = tested on: CCRF-CEM cells (MTA phosphorylase-deficient); assay: Growth inhibition of CCRF-CEM cells; assay type: cell-based, human; settings: 96 h
# Protocol: as §1, §2
# [4] = target: T1, Mouse Liver MTA Phosphorylase (Mus musculus, UniProt Q9CQ65); assay: Mouse liver MTA phosphorylase substrate/inhibitor assay; assay type: biochemical; settings: for Substrate (% Control): substrate activity relative to MTA
# T1 sequence (Q9CQ65 1-283): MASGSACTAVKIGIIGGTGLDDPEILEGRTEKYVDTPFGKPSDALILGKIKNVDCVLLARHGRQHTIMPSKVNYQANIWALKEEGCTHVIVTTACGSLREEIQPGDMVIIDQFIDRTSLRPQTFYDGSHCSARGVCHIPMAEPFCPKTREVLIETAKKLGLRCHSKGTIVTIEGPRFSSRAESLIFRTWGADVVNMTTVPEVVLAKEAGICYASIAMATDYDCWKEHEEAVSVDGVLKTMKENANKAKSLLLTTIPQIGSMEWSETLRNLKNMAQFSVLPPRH
# Protocol: ^a MTA phosphorylase activity was assayed as described in Sufrin et
# [5] = tested on: MOLT-4 cells (MTA phosphorylase-containing); assay: Growth inhibition of MOLT-4 cells; assay type: cell-based, human; settings: MOLT-4, 96 h
# Protocol: as §1, §2
# [6] = tested on: L5178Y cells (MTA phosphorylase-containing); assay: Growth inhibition of L5178Y cells; assay type: cell-based, mouse; settings: 48 h
# Protocol: as §1, §2
# [7] = target: T2, T. b. brucei MTA phosphorylase (Trypanosoma brucei, UniProt Q57XS4); assay: T. b. brucei MTA phosphorylase substrate assay; assay type: biochemical; settings: for Percent Control Activity: relative to MTA
# T2 construct: MTA or analogs as substrates
# T2 sequence (Q57XS4 entry or part of it): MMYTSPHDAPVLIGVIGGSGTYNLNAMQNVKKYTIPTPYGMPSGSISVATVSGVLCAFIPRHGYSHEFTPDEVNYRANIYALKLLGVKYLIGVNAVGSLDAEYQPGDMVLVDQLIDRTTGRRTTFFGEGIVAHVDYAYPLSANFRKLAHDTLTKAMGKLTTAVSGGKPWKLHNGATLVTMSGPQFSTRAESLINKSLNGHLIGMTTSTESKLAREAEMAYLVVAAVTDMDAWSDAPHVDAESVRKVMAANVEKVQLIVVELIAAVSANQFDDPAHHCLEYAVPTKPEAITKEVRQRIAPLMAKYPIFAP
# Protocol: ^a MTA phosphorylase was assayed according to Ghoda et al., using 200
# μM MTA (saturating) or analogs as substrates. Specific activities of
# the dialyzed enzyme preparations were with 50 mM PO4, 104.97 n
# moles/mg protein/h; without PO4, 28.27 n moles/mg protein/h. Results
# are expressed as percent activity compared to as substrate with and
# without PO4, respectively.
# P. falciparum = assay: In vitro antimalarial activity of HETA; assay type: cell-based, Plasmodium falciparum; settings: for growth of the microorganism inhibited in an in vitro screen: P. falciparum in vitro screen
# [8] = tested on: Trichomonas vaginalis ATCC 3001; assay: Minimum lethal concentration against Trichomonas vaginalis, multiwell plate assay, ATCC 3001; assay type: cell-based
# From the text: (§3) Preliminary in vitro evaluation of HETA and other compounds against isolates of Trichomonas vaginalis was done.
# (§4) Values are expressed as μg of compound per ml of medium required to inhibit growth and motility of the parasite in a multiwell plate assay as described by Meingassner, Mieth, Czok, Lindmark and Muller (1978) Antimicrob. Agents and Chemother. 13, 1-3. The present drug used for treatment--metronidazole (Flagyl®) is included for comparison. Strain ATCC 50143 (CDC-85) was refractory to chemotherapeutic dose levels of metronidazole. (ND=not done).
# [9] = tested on: Trichomonas vaginalis ATCC 50143 (CDC-85), metronidazole-resistant; assay: Minimum lethal concentration against Trichomonas vaginalis, multiwell plate assay, ATCC 50143 (CDC-85); assay type: cell-based
# From the text: as §3, §4
# [10] = tested on: EATRO 110 strain of T. b. brucei; assay: Bloodstream forms of African trypanosomes grown in vitro, EATRO 110; assay type: cell-based; settings: day 4
# Protocol: (§5) Cultures were initiated directly from infected mouse blood into Falcon 24 well plates containing 1 ml of Iscoves modified Dulbecco's medium plus 20% horse serum, 2 mM pyruvate, 2 mM glutamine, and 0.2 uM mercaptoethanol. Initial cell counts were 2.5-5.0×10^5 /ml. Plates were incubated at 37 C. in 5 percent CO2. HETA was dissolved in the medium and filter sterilized. One half the volume of each well was replaced with fresh medium each day.
# (§6) Cell counts were made daily. Data are given as percent inhibition of growth as determined by hemocytometer counts on day 4 as compared to control cultures without drug.
# (§7) In Table 2, EATRO 110 is a strain of T. b. brucei; and KETRI 2002, and KETRI 243 are T. b. rhodesiense clinical isolates.
# [11] = tested on: T. b. brucei LAB 110 EATRO; assay: In vivo antitrypanosomal activity, LAB EATRO mouse infection model; settings: miniosmotic pump
# Protocol: ^a Animals were treated with surgically implanted miniosmotic pumps
# loaded as per manufacturers instructions with MTA, HETA or MFETA suspende
# [12] = tested on: KETRI 243 T. b. rhodesiense clinical isolate; assay: Bloodstream forms of African trypanosomes grown in vitro, KETRI 243; assay type: cell-based; settings: day 4
# Protocol: as §5, §6, §7
# [13] = tested on: KETRI 2002 T. b. rhodesiense clinical isolate; assay: Bloodstream forms of African trypanosomes grown in vitro, KETRI 2002; assay type: cell-based; settings: day 4
# Protocol: as §5, §6, §7
smiles,measurement,setting,value
"CCCSC[C@H]1O[C@@H](n2cnc3c(N)ncnc32)[C@H](O)[C@@H]1O [PTA, reference compound]",IC50,[1]; Mus musculus,1000 µM
same,IC50,[2]; Trypanosoma brucei,46 µM
same,IC50,[3]; Homo sapiens,160 µM
same,Substrate (% Control),[4],102 % Control
same,IC50,[5]; Homo sapiens,45 µM
same,IC50,[6]; Mus musculus,500 µM
same,Percent Control Activity,"[7]; +50 mM PO4, 200 μM substrate",57.5%
same,Percent Control Activity,"[7]; No PO4, 200 μM substrate",96.4%
"Nc1ncnc2c1ncn2[C@@H]1O[C@H](CSCCCF)[C@@H](O)[C@H]1O [MFPTA, reference compound]",IC50,[1]; Mus musculus,600 µM
same,IC50,[2]; Trypanosoma brucei,120 µM
same,IC50,[3]; Homo sapiens,160 µM
same,Substrate (% Control),[4],66 % Control
same,IC50,[5]; Homo sapiens,25 µM
same,IC50,[6]; Mus musculus,600 µM
same,Percent Control Activity,"[7]; +50 mM PO4, 200 μM substrate",47.5%
same,Percent Control Activity,"[7]; No PO4, 200 μM substrate",116.4%
"CCSC[C@H]1O[C@@H](n2cnc3c(N)ncnc32)[C@H](O)[C@@H]1O [ETA, reference compound]",IC50,[1]; Mus musculus,800 ± 100 µM
same,IC50,[2]; Trypanosoma brucei,138 µM
same,IC50,[3]; Homo sapiens,200 ± 100 µM
same,Substrate (% Control),[4],95 % Control
same,IC50,[5]; Homo sapiens,20 ± 10 µM
same,IC50,[6]; Mus musculus,250 ± 100 µM
same,Percent Control Activity,"[7]; +50 mM PO4, 200 μM substrate",76.2%
same,Percent Control Activity,"[7]; No PO4, 200 μM substrate",100%
same,growth of the microorganism inhibited in an in vitro screen,P. falciparum,inhibited
"Nc1ncnc2c1ncn2[C@@H]1O[C@H](CSCCCl)[C@@H](O)[C@H]1O [CETA, 5'-deoxy-5'-(chloroethylthio)adenosine]",Minimum lethal concentration (MLC),"[8]; ATCC 3001, 24 h",93.7 µg/mL
same,Minimum lethal concentration (MLC),"[8]; ATCC 3001, 48 h",23.4 µg/mL
same,IC50,[1],250 µM
same,IC50,[2],2.5 µM
same,IC50,[3],240 ± 90 µM
same,Ki,[4],12 µM
same,Substrate (% Control),[4],35 % Control
same,Minimum lethal concentration (MLC),"[9]; ATCC 50143, 24 h",187.5 µg/mL
same,Minimum lethal concentration (MLC),"[9]; ATCC 50143, 48 h",11.7 µg/mL
same,activity against metronidazole(Flagyl)-resistant strain CDC-85,"[9]; CDC-85 strain, preliminary in vitro evaluation",active
same,IC50,[5],30 ± 20 µM
same,IC50,[6],200 µM
same,Percent Control Activity,"[7]; +50 mM PO4, 200 μM substrate",60%
same,Percent Control Activity,"[7]; No PO4, 200 μM substrate",94.4%
"Nc1ncnc2c1ncn2[C@@H]1O[C@H](CSCCO)[C@@H](O)[C@H]1O [HETA, 5'-deoxy-5'-(hydroxyethylthio)adenosine]",percent inhibition of growth,[10]; 0.1 um HETA,0%
same,percent inhibition of growth,[10]; 0.5 um HETA,44%
same,percent inhibition of growth,[10]; 1.0 um HETA,59%
same,percent inhibition of growth,[10]; 2.25 um HETA,70%
same,activity against the C1-NIH strain,"[8]; C1-NIH strain, preliminary in vitro evaluation",displays activity
same,IC50,[1]; Mus musculus,1000 µM
same,IC50,[2]; Trypanosoma brucei,0.5 µM
same,% Cured,"[11]; 25 mg/kg/day, 7 days",73%
same,MSD (mean survival in days of animals dying of infection),"[11]; 25 mg/kg/day, 7 days",15.3 days
same,Number Cured Total,"[11]; 25 mg/kg/day, 7 days",11/15
same,% Cured,"[11]; 50 mg/kg/day, 7 days",68%
same,MSD (mean survival in days of animals dying of infection),"[11]; 50 mg/kg/day, 7 days",14.5 days
same,Number Cured Total,"[11]; 50 mg/kg/day, 7 days",17/25
same,% Cured,"[11]; 50 mg/kg/day, 14 days",60%
same,MSD (mean survival in days of animals dying of infection),"[11]; 50 mg/kg/day, 14 days",18.1 days
same,Number Cured Total,"[11]; 50 mg/kg/day, 14 days",9/15
same,% Cured,"[11]; 100 mg/kg/day, 7 days",87%
same,MSD (mean survival in days of animals dying of infection),"[11]; 100 mg/kg/day, 7 days",26.0 days
same,Number Cured Total,"[11]; 100 mg/kg/day, 7 days",13/15
same,% Cured,"[11]; 150 mg/kg/day, 7 days",90%
same,MSD (mean survival in days of animals dying of infection),"[11]; 150 mg/kg/day, 7 days",14.5 days
same,Number Cured Total,"[11]; 150 mg/kg/day, 7 days",18/20
same,IC50,[3]; Homo sapiens,100 µM
same,Ki,"[4]; mouse liver MTA phosphorylase, read-out: K1",26 µM
same,Substrate (% Control),[4],34 % Control
same,IC50,[5]; Homo sapiens,40 µM
same,IC50,[6]; Mus musculus,500 µM
same,percent inhibition of growth,[12]; 0.1 um HETA,0%
same,percent inhibition of growth,[12]; 0.5 um HETA,0%
same,percent inhibition of growth,[12]; 1.0 um HETA,0%
same,percent inhibition of growth,[12]; 2.25 um HETA,0%
same,percent inhibition of growth,[13]; 0.1 um HETA,0%
same,percent inhibition of growth,[13]; 0.5 um HETA,0%
same,percent inhibition of growth,[13]; 1.0 um HETA,15%
same,percent inhibition of growth,[13]; 2.25 um HETA,60%
same,Percent Control Activity,"[7]; +50 mM PO4, 200 μM substrate",85%
same,Percent Control Activity,"[7]; No PO4, 200 μM substrate",100%
same,metabolism by T. b. brucei MTA phosphorylase,[7]; compared with MTA,as effectively as MTA itself
same,growth of the microorganism inhibited in an in vitro screen,P. falciparum,inhibited
same,IC50,"P. falciparum; Plasmodium falciparum, P. falciparum in vitro",~22 µM
